Experimental data: patent US20230016424A1, “HYBRID AMIDE DERIVATIVES OF AMPHOTERICIN B” (The Board of Trustees of the University of Illinois, priority 2019, published 2023)

System: C. albicans SN250, C. albicans, C. krusei, C. glabrata, C. tropicalis, A. fumigatus 91, 1163, 1100
Assay: Average MIC over the tested strains
Format: cell-based
Settings: Table 7, C16 amide AmB variants

`CC1C=CC=CC=CC=CC=CC=CC=CC(OC2OC(C)C(O)C(N)C2O)CC2OC(O)(CC(O)CC(O)C(O)CCC(O)CC(O)CC(=O)OC(C)C(C)C1O)CC(O)C2C(=O)NCC1OC(n2cnc3c(=O)[nH]c(N)nc32)C(O)C1O` (stereo not drawn) [DM] and `CC1C=CC=CC=CC=CC=CC=CC=CC(OC2OC(C)C(O)C(N)C2O)CC2OC(O)(CC(O)CC(O)C(O)CCC(O)CC(O)CC(=O)OC(C)C(C)C1O)CC(O)C2C(=O)NC1C(CO)OC(n2cnc3c(N)ncnc32)C1O` (mixture of isomers) [EA] are within 1.5-fold of each other in “MIC (Average Minimum Inhibition Concentration)” value: 0.391 µM for the first, 0.422 µM for the second.

`CC1C=CC=CC=CC=CC=CC=CC=CC(OC2OC(C)C(O)C(N)C2O)CC2OC(O)(CC(O)CC(O)C(O)CCC(O)CC(O)CC(=O)OC(C)C(C)C1O)CC(O)C2C(=O)NCB(O)O` (stereo not drawn) [EG] and `CNC(=O)C1C(O)CC2(O)CC(O)CC(O)C(O)CCC(O)CC(O)CC(=O)OC(C)C(C)C(O)C(C)C=CC=CC=CC=CC=CC=CC=CC(OC3OC(C)C(O)C(N)C3O)CC1O2` (stereo not drawn) [GI] are within 1.5-fold of each other in “MIC (Average Minimum Inhibition Concentration)” value: 0.430 µM for the first, 0.336 µM for the second.

`CC1C=CC=CC=CC=CC=CC=CC=CC(OC2OC(C)C(O)C(N)C2O)CC2OC(O)(CC(O)CC(O)C(O)CCC(O)CC(O)CC(=O)OC(C)C(C)C1O)CC(O)C2C(=O)NCC1OC(O)C(O)C(O)C1O` (stereo not drawn) [EF] and `CC1C=CC=CC=CC=CC=CC=CC=CC(OC2OC(C)C(O)C(N)C2O)CC2OC(O)(CC(O)CC(O)C(O)CCC(O)CC(O)CC(=O)OC(C)C(C)C1O)CC(O)C2C(=O)NC1C(O)OC(CO)C(O)C1O` (mixture of isomers) [GL] are within 1.5-fold of each other in “MIC (Average Minimum Inhibition Concentration)” value: 0.430 µM for the first, 0.344 µM for the second.

`COC(=O)C(CCCNC(=N)N)NC(=O)C1C(O)CC2(O)CC(O)CC(O)C(O)CCC(O)CC(O)CC(=O)OC(C)C(C)C(O)C(C)C=CC=CC=CC=CC=CC=CC=CC(OC3OC(C)C(O)C(N)C3O)CC1O2` (stereo not drawn) [DQ] and `CC1C=CC=CC=CC=CC=CC=CC=CC(OC2OC(C)C(O)C(N)C2O)CC2OC(O)(CC(O)CC(O)C(O)CCC(O)CC(O)CC(=O)OC(C)C(C)C1O)CC(O)C2C(=O)NCCNC(=N)N` (stereo not drawn) [DV] are the same in “MIC (Average Minimum Inhibition Concentration)” value: 0.406 µM for the first, 0.406 µM for the second.

`COC1OC(CO)C(O)C(NC(=O)C2C(O)CC3(O)CC(O)CC(O)C(O)CCC(O)CC(O)CC(=O)OC(C)C(C)C(O)C(C)C=CC=CC=CC=CC=CC=CC=CC(OC4OC(C)C(O)C(N)C4O)CC2O3)C1O` (mixture of isomers) [FO] and `CC1C=CC=CC=CC=CC=CC=CC=CC(OC2OC(C)C(O)C(N)C2O)CC2OC(O)(CC(O)CC(O)C(O)CCC(O)CC(O)CC(=O)OC(C)C(C)C1O)CC(O)C2C(=O)NC1C(O)OC(CO)C(O)C1O` (mixture of isomers) [FK] are within 1.5-fold of each other in “MIC (Average Minimum Inhibition Concentration)” value: 0.258 µM for the first, 0.211 µM for the second.

First: CC1C=CC=CC=CC=CC=CC=CC=CC(OC2OC(C)C(O)C(N)C2O)CC2OC(O)(CC(O)CC(O)C(O)CCC(O)CC(O)CC(=O)OC(C)C(C)C1O)CC(O)C2C(=O)NC1C(O)OCC(O)C1O (stereo not drawn) [FU]
Second: CC1C=CC=CC=CC=CC=CC=CC=CC(OC2OC(C)C(O)C(N)C2O)CC2OC(O)(CC(O)CC(O)C(O)CCC(O)CC(O)CC(=O)OC(C)C(C)C1O)CC(O)C2C(=O)NC1COCC1O (stereo not drawn) [EU]
The “MIC (Average Minimum Inhibition Concentration)” value of the first is 1.7-fold lower: 0.289 µM for the first, 0.500 µM for the second.

Compared with `CC1C=CC=CC=CC=CC=CC=CC=CC(OC2OC(C)C(O)C(N)C2O)CC2OC(O)(CC(O)CC(O)C(O)CCC(O)CC(O)CC(=O)OC(C)C(C)C1O)CC(O)C2C(=O)NC1CC(CO)C(O)C1O` (stereo not drawn) [FS], `CC1C=CC=CC=CC=CC=CC=CC=CC(OC2OC(C)C(O)C(N)C2O)CC2OC(O)(CC(O)CC(O)C(O)CCC(O)CC(O)CC(=O)OC(C)C(C)C1O)CC(O)C2C(=O)NC1CC(N)C(O)C(O)C1O` (stereo not drawn) [FI] is 16-fold lower in “MIC (Average Minimum Inhibition Concentration)” value: 2.81 µM for the first, 0.172 µM for the second.

`CC1C=CC=CC=CC=CC=CC=CC=CC(OC2OC(C)C(O)C(N)C2O)CC2OC(O)(CC(O)CC(O)C(O)CCC(O)CC(O)CC(=O)OC(C)C(C)C1O)CC(O)C2C(=O)NC(CC(N)=O)C(N)=O` (stereo not drawn) [FZ] and `CC1C=CC=CC=CC=CC=CC=CC=CC(OC2OC(C)C(O)C(N)C2O)CC2OC(O)(CC(O)CC(O)C(O)CCC(O)CC(O)CC(=O)OC(C)C(C)C1O)CC(O)C2C(=O)NC(CO)C(N)=O` (stereo not drawn) [FN] are within 1.5-fold of each other in “MIC (Average Minimum Inhibition Concentration)” value: 0.316 µM for the first, 0.238 µM for the second.

`CC1C=CC=CC=CC=CC=CC=CC=CC(OC2OC(C)C(O)C(N)C2O)CC2OC(O)(CC(O)CC(O)C(O)CCC(O)CC(O)CC(=O)OC(C)C(C)C1O)CC(O)C2C(=O)NC1COC1` (stereo not drawn) [DX] and `CC1C=CC=CC=CC=CC=CC=CC=CC(OC2OC(C)C(O)C(N)C2O)CC2OC(O)(CC(O)CC(O)C(O)CCC(O)CC(O)CC(=O)OC(C)C(C)C1O)CC(O)C2C(=O)NC1CC1` (stereo not drawn) [EI] are within 1.5-fold of each other in “MIC (Average Minimum Inhibition Concentration)” value: 0.422 µM for the first, 0.438 µM for the second.

Going from `CC1C=CC=CC=CC=CC=CC=CC=CC(OC2OC(C)C(O)C(N)C2O)CC2OC(O)(CC(O)CC(O)C(O)CCC(O)CC(O)CC(=O)OC(C)C(C)C1O)CC(O)C2C(=O)NCCCNC(N)=O` (stereo not drawn) [EQ] to `CC1C=CC=CC=CC=CC=CC=CC=CC(OC2OC(C)C(O)C(N)C2O)CC2OC(O)(CC(O)CC(O)C(O)CCC(O)CC(O)CC(=O)OC(C)C(C)C1O)CC(O)C2C(=O)NCCCO` (stereo not drawn) [GA], the “MIC (Average Minimum Inhibition Concentration)” value falls from 0.484 µM to 0.320 µM (1.5-fold).

Compared with `CC1C=CC=CC=CC=CC=CC=CC=CC(OC2OC(C)C(O)C(N)C2O)CC2OC(O)(CC(O)CC(O)C(O)CCC(O)CC(O)CC(=O)OC(C)C(C)C1O)CC(O)C2C(=O)NCC(O)CO` (stereo not drawn) [GH], `CC1C=CC=CC=CC=CC=CC=CC=CC(OC2OC(C)C(O)C(N)C2O)CC2OC(O)(CC(O)CC(O)C(O)CCC(O)CC(O)CC(=O)OC(C)C(C)C1O)CC(O)C2C(=O)NCCCCO` (stereo not drawn) [EY] is 1.5-fold higher in “MIC (Average Minimum Inhibition Concentration)” value: 0.329 µM for the first, 0.500 µM for the second.

`CNC(=O)CNC(=O)C1C(O)CC2(O)CC(O)CC(O)C(O)CCC(O)CC(O)CC(=O)OC(C)C(C)C(O)C(C)C=CC=CC=CC=CC=CC=CC=CC(OC3OC(C)C(O)C(N)C3O)CC1O2` (stereo not drawn) [GN] and `CC1C=CC=CC=CC=CC=CC=CC=CC(OC2OC(C)C(O)C(N)C2O)CC2OC(O)(CC(O)CC(O)C(O)CCC(O)CC(O)CC(=O)OC(C)C(C)C1O)CC(O)C2C(=O)NCC(C)(C)C(N)=O` (stereo not drawn) [EC] are within 1.5-fold of each other in “MIC (Average Minimum Inhibition Concentration)” value: 0.344 µM for the first, 0.422 µM for the second.

`CC1C=CC=CC=CC=CC=CC=CC=CC(OC2OC(C)C(O)C(N)C2O)CC2OC(O)(CC(O)CC(O)C(O)CCC(O)CC(O)CC(=O)OC(C)C(C)C1O)CC(O)C2C(=O)NCCOC(F)F` (stereo not drawn) [EW] and `CC1C=CC=CC=CC=CC=CC=CC=CC(OC2OC(C)C(O)C(N)C2O)CC2OC(O)(CC(O)CC(O)C(O)CCC(O)CC(O)CC(=O)OC(C)C(C)C1O)CC(O)C2C(=O)NCCC#N` (stereo not drawn) [EK] are within 1.5-fold of each other in “MIC (Average Minimum Inhibition Concentration)” value: 0.500 µM for the first, 0.438 µM for the second.

First: CC1C=CC=CC=CC=CC=CC=CC=CC(OC2OC(C)C(O)C(N)C2O)CC2OC(O)(CC(O)CC(O)C(O)CCC(O)CC(O)CC(=O)OC(C)C(C)C1O)CC(O)C2C(=O)NCCCCCO (stereo not drawn) [FF]
Second: CC1C=CC=CC=CC=CC=CC=CC=CC(OC2OC(C)C(O)C(N)C2O)CC2OC(O)(CC(O)CC(O)C(O)CCC(O)CC(O)CC(=O)OC(C)C(C)C1O)CC(O)C2C(=O)NCCN(C)C (stereo not drawn) [DA]
The “MIC (Average Minimum Inhibition Concentration)” value of the first is 1.5-fold higher: 0.531 µM for the first, 0.352 µM for the second.

`CC1C=CC=CC=CC=CC=CC=CC=CC(OC2OC(C)C(O)C(N)C2O)CC2OC(O)(CC(O)CC(O)C(O)CCC(O)CC(O)CC(=O)OC(C)C(C)C1O)CC(O)C2C(=O)NC1(C(N)=O)CC1` (stereo not drawn) [FG] and `CC1C=CC=CC=CC=CC=CC=CC=CC(OC2OC(C)C(O)C(N)C2O)CC2OC(O)(CC(O)CC(O)C(O)CCC(O)CC(O)CC(=O)OC(C)C(C)C1O)CC(O)C2C(=O)NC1CNC1=O` (stereo not drawn) [ES] are within 1.5-fold of each other in “MIC (Average Minimum Inhibition Concentration)” value: 0.531 µM for the first, 0.484 µM for the second.

`O=CO` [FA] and `CC1C=CC=CC=CC=CC=CC=CC=CC(OC2OC(C)C(O)C(N)C2O)CC2OC(O)(CC(O)CC(O)C(O)CCC(O)CC(O)CC(=O)OC(C)C(C)C1O)CC(O)C2C(=O)NC1CCCC1O` (mixture of isomers) [EV] are within 1.5-fold of each other in “MIC (Average Minimum Inhibition Concentration)” value: 0.516 µM for the first, 0.500 µM for the second.

`CC1C=CC=CC=CC=CC=CC=CC=CC(OC2OC(C)C(O)C(N)C2O)CC2OC(O)(CC(O)CC(O)C(O)CCC(O)CC(O)CC(=O)OC(C)C(C)C1O)CC(O)C2C(=O)NC1CCNC1=O` (stereo not drawn) [GC] and `CC1C=CC=CC=CC=CC=CC=CC=CC(OC2OC(C)C(O)C(N)C2O)CC2OC(O)(CC(O)CC(O)C(O)CCC(O)CC(O)CC(=O)OC(C)C(C)C1O)CC(O)C2C(=O)NCCNS(C)(=O)=O` (stereo not drawn) [EO] are within 1.5-fold of each other in “MIC (Average Minimum Inhibition Concentration)” value: 0.320 µM for the first, 0.469 µM for the second.

`CC1C=CC=CC=CC=CC=CC=CC=CC(OC2OC(C)C(O)C(N)C2O)CC2OC(O)(CC(O)CC(O)C(O)CCC(O)CC(O)CC(=O)OC(C)C(C)C1O)CC(O)C2C(=O)NCCn1cncn1` (stereo not drawn) [FY] and `CC1C=CC=CC=CC=CC=CC=CC=CC(OC2OC(C)C(O)C(N)C2O)CC2OC(O)(CC(O)CC(O)C(O)CCC(O)CC(O)CC(=O)OC(C)C(C)C1O)CC(O)C2C(=O)NCC(O)C(O)C(O)C(O)CO` (stereo not drawn) [FW] are within 1.5-fold of each other in “MIC (Average Minimum Inhibition Concentration)” value: 0.316 µM for the first, 0.313 µM for the second.

Same assay, conditions: Table 12, C16 amides of C2'epiAmB

Compared with `CC1C=CC=CC=CC=CC=CC=CC=CC(OC2OC(C)C(O)C(N)C2O)CC2OC(O)(CC(O)CC(O)C(O)CCC(O)CC(O)CC(=O)OC(C)C(C)C1O)CC(O)C2C(=O)NCCC(N)=O` (stereo not drawn) [BU], `CC1C=CC=CC=CC=CC=CC=CC=CC(OC2OC(C)C(O)C(N)C2O)CC2OC(O)(CC(O)CC(O)C(O)CCC(O)CC(O)CC(=O)OC(C)C(C)C1O)CC(O)C2C(=O)NC1CCC1` (stereo not drawn) [BW] is 2.2-fold higher in “Average MIC” value: 2.563 µM for the first, 5.563 µM for the second.

With `COC(=O)C(Cc1c[nH]cn1)NC(=O)C1C(O)CC2(O)CC(O)CC(O)C(O)CCC(O)CC(O)CC(=O)OC(C)C(C)C(O)C(C)C=CC=CC=CC=CC=CC=CC=CC(OC3OC(C)C(O)C(N)C3O)CC1O2` (stereo not drawn) [BX] the “Average MIC” value was 9.073 µM.
